In PubChem BioAssay (NCI):
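Grown in 96-well plates, cells were treated for 48 hours with each compound at five concentrations. Insufficient inhibition: endpoint recorded as highest concentration tested. GI50: concentration for 50% inhibition of growth. TGI marks complete inhibition of growth.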

What was measured:
Assay in all cases: inhibition of tumour cell growth, NCI panel, 48 h
[1] = system: CCRF-CEM leukemia
[2] = system: DU-145 prostate
[3] = system: HOP-62 NSCLC
[4] = system: MCF7 breast
[5] = system: MOLT-4 leukemia
[6] = system: NCI-H23 lung
[7] = system: NCI-H522 lung
[8] = system: OVCAR-8 ovarian
[9] = system: SF-539 CNS
[10] = system: SK-MEL-5 melanoma

Row | SMILES | TGI [1] [µM] | TGI [2] [µM] | TGI [3] [µM] | TGI [4] [µM] | TGI [5] [µM] | TGI [6] [µM] | TGI [7] [µM] | TGI [8] [µM] | TGI [9] [µM] | TGI [10] [µM] | GI50 [1] [µM] | GI50 [2] [µM] | GI50 [3] [µM] | GI50 [4] [µM] | GI50 [5] [µM] | GI50 [6] [µM] | GI50 [7] [µM] | GI50 [8] [µM] | GI50 [9] [µM] | GI50 [10] [µM]
1 | COc1cc(C=C2C(C)=NN(c3cccc(Cl)c3)C23SCC(=O)N3c2nc3ccccc3s2)ccc1O (stereo not given) | 15.8 | > 100 | 91.5 | > 100 | 35.1 | 84.2 | 41.5 | 50.5 | > 58.4 | 40.7 | – | – | – | – | – | – | – | – | – | –
2 | CNC(=O)OC(C)CN1c2ccccc2Sc2ccc(Cl)cc21 (stereo not given) | > 10 | > 10 | > 10 | > 10 | > 10 | > 10 | > 10 | > 10 | > 10 | > 10 | – | – | – | – | – | – | – | – | – | –
3 | CCOC(=O)CSc1nc(N)c2c(-c3ccc(OC)c(OC)c3)c3c(nc2n1)CCCC3 | > 100 | > 100 | > 100 | > 100 | > 100 | > 100 | – | 87.4 | – | > 100 | – | – | – | – | – | – | – | – | – | –
4 | COc1ccc2nc(-n3c(/C=C/c4ccccc4O)nc4ccccc4c3=O)sc2c1 | > 100 | > 100 | > 100 | > 100 | > 100 | > 100 | > 100 | > 100 | – | 66.2 | – | – | – | – | – | – | – | – | – | –
5 | CC[C@H]1C=CCC[C@@]2(C[C@@H]3CC[C@@H]4[C@H](C(=O)OCCCCCCCCCCCCCCCC(=O)O)[C@]5(CCC[C@@H](C)O5)NC(=[N+]34)N2)O1 | 0.0215 | 8 | 3.6 | 4.95 | 2.84 | 4.83 | 0.365 | 8.03 | 3.12 | 0.251 | – | – | – | – | – | – | – | – | – | –
6 | Cn1c(=O)c2c(nc(-n3nc(-c4ccc(Cl)cc4)cc3N)n2C)n(C)c1=O | > 100 | > 100 | 81.9 | > 100 | > 100 | > 100 | – | > 100 | 69.4 | > 100 | – | – | – | – | – | – | – | – | – | –
7 | COc1ccc2nc(-c3ccc(-c4noc(-c5cc(OC)c(OC)c(OC)c5)n4)cc3)[nH]c2c1 | > 100 | 28.3 | 16.8 | 22.1 | 59.1 | 20 | 45.3 | 26.4 | 3.83 | 17.3 | 2.2 | 9.48 | 4.44 | 1.08 | 5.29 | 4.1 | 6.89 | 4.93 | 2 | 3.25
8 | CCCNC(=O)c1cc(NC(=O)c2cc(NC(=O)/C=C/c3ccccc3)c(OC)c(OC)c2)c(OC)c(OC)c1 | > 100 | > 100 | 19.4 | 28.5 | > 100 | > 100 | 23.1 | 17 | 20.4 | – | – | – | – | – | – | – | – | – | – | –
9 | ONc1ncnc2nc[nH]c12 | > 100 | – | > 100 | – | > 100 | > 100 | > 100 | > 100 | > 100 | > 100 | – | – | – | – | – | – | – | – | – | –
10 | CN(C)CC(=O)Nc1ccc(Cn2nnc3c2C(=O)c2nnn(Cc4ccc(NC(=O)CN(C)C)cc4)c2C3=O)cc1 | 0.747 | 0.337 | – | – | – | 0.488 | – | 0.679 | 0.502 | 0.286 | 0.204 | 0.175 | – | – | – | 0.192 | – | 0.228 | 0.197 | 0.151
11 | N=C(N)c1ccc(-c2ccc(-c3cc(Cl)cc(Cl)c3)o2)nc1 | – | 3.37 | – | 3.6 | 5.05 | 3.93 | 3.86 | 3.83 | 3.25 | 3.25 | – | 1.87 | – | 1.73 | 2.46 | 1.96 | 1.98 | 1.88 | 1.76 | 1.77
12 | CCC1C(C#N)=C(N)OC2=C1C(=O)CC(C)(C)C2 (stereo not given) | > 100 | > 100 | > 100 | > 100 | > 100 | > 100 | > 100 | > 100 | > 100 | > 100 | – | – | – | – | – | – | – | – | – | –
13 | CC(=O)Nc1cc([As](=O)(O)O)ccc1O | > 100 | > 100 | > 100 | > 100 | > 100 | > 100 | > 100 | > 100 | > 100 | > 100 | – | – | – | – | – | – | – | – | – | –
14 | CC#CC#C/C=C1/O[C@]2(CCC(OC(C)=O)CO2)[C@@H]2O[C@H]12 (stereo not given in full) | 55.3 | > 100 | > 100 | > 100 | 57 | 44.7 | 35.6 | > 100 | – | – | – | – | – | – | – | – | – | – | – | –
15 | COc1cccc(N=Cc2cc3cc(Br)ccc3nc2Cl)c1 | 48.8 | > 50 | > 50 | – | > 50 | > 50 | > 50 | > 50 | > 50 | > 50 | – | – | – | – | – | – | – | – | – | –
16 | CCCc1[nH]c(SCCCCCCCCSc2nc(-c3ccc(F)cc3)c(CCC)[nH]2)nc1-c1ccc(F)cc1 | > 100 | – | > 100 | – | > 100 | 30.6 | – | > 100 | 27.7 | 67.1 | – | – | – | – | – | – | – | – | – | –
17 | O=C(CCCCCCC(=O)Nc1ccc(N(CCCl)CCCl)cc1)NO | > 100 | 19.3 | 13.5 | 24.3 | 4.26 | 8.64 | 2.03 | 21 | 14.7 | 2.92 | 0.405 | 2.72 | 2.98 | 1.48 | 0.421 | 2.1 | 0.474 | 1.79 | 2.38 | 1.33
